# Legend:
# human NaX-QTT = molecular target: T1, human NaX-QTT (Homo sapiens, UniProt Q01118, F724Q/I1189T/I1492T); experiment: Two-electrode voltage-clamp of Xenopus laevis oocytes expressing human NaX-QTT with blockers or multivalent cations; format: cell-based
# T1 construct: expressed in transfected cells; host or cells: Xenopus laevis oocytes injected with in vitro transcribed capped RNA
# Protocol: FIGS. 5A-C show pharmacology of the human NaX-QTT channel. FIG. 5A, left and middle panels, show representative I-V currents from HEK293 cells expressing human NaX-QTT with indicated extracellular monovalent cations with or without indicated amounts of CaCl2 in the extracellular solution. Voltage ramp from −80 to +80 mV was applied.
# Oocytes were prepared as previously described^68. Healthy-looking stage V-VI oocytes were injected with 2.5-40 ng of RNA (in 5-41 nL) using a Nanoliter 2010 injector (World Precision Instruments). When excluding one or more construct, an equivalent volume of nuclease-free water was added to maintain a constant RNA concentration across different construct combinations. Injected oocytes were kept at 18° C., 140 rpm, in ND96 supplemented with 50 μg/mL gentamicin and 50 μg/mL tetracycline (in mM: 96 NaCl, 2 KCl, 1 MgCl2, 1.8 CaCl2), 2.5 sodium pyruvate, 0.5 theophylline, 5 HEPES; pH 7.4 with NaOH) for two to five days. Two-electrode voltage-clamp measurements were performed at room temperature using a Warner OC-725C Oocyte Clamp amplifier (Warner Instrument Corp, USA) and under constant perfusion with ND96 solution (in mM: 96 NaCl, 2 KCl, 1 MgCl2, 1.8 CaCl2, 5 HEPES; pH 7.4 with NaOH). For ion selectivity experiments, external solutions contained 115 mM of test cations as chloride salts, 1.2 mM CaCl2, 2 mM MgCl2, 5 mM HEPES (pH 7.4 with the corresponding hydroxide). Data acquisition was performed using a Digidata 1550 digitizer (Molecular devices; sampled at 10 kHz) and pCLAMP 10 software (Molecular Devices). Microelectrodes from borosilicate glass capillaries (Harvard Apparatus) were prepared to have resistances around 0.2-1.0 MQ2 using a P-1000 Flaming/Brown Micropipette Puller System (Sutter Instrument) and backfilled with 3 M KCl. Aconitine and veratridine (Alomone Labs) were dissolved in DMSO to make 50 mM stocks, and were further diluted to 300 and 100 μM in ND96 for electrophysiological experiments. Other NaV activators (Alomone Labs; FIGS. 8A-D) were dissolved in water to make stock solutions. The voltage dependence of ion current was determined using a protocol consisting of steps from a holding potential of 0 mV to voltages ranging from +80 to −100 mV for 1 s in 20 mV increment.
# [1] = reported for pathogenic mutation; cited from earlier work
# Xenopus laevis oocytes = experiment: Voltage dependence of activation and steady-state inactivation of mutant NaV channels; format: cell-based; conditions: NaV1.7 mutant
# [2] = at concentrations up to 300 μM, oocytes
# [3] = 1 mM, oocytes, step from 0 to +80 mV
# T1 sequence (Q01118 whole entry F724Q/I1189T/I1492T): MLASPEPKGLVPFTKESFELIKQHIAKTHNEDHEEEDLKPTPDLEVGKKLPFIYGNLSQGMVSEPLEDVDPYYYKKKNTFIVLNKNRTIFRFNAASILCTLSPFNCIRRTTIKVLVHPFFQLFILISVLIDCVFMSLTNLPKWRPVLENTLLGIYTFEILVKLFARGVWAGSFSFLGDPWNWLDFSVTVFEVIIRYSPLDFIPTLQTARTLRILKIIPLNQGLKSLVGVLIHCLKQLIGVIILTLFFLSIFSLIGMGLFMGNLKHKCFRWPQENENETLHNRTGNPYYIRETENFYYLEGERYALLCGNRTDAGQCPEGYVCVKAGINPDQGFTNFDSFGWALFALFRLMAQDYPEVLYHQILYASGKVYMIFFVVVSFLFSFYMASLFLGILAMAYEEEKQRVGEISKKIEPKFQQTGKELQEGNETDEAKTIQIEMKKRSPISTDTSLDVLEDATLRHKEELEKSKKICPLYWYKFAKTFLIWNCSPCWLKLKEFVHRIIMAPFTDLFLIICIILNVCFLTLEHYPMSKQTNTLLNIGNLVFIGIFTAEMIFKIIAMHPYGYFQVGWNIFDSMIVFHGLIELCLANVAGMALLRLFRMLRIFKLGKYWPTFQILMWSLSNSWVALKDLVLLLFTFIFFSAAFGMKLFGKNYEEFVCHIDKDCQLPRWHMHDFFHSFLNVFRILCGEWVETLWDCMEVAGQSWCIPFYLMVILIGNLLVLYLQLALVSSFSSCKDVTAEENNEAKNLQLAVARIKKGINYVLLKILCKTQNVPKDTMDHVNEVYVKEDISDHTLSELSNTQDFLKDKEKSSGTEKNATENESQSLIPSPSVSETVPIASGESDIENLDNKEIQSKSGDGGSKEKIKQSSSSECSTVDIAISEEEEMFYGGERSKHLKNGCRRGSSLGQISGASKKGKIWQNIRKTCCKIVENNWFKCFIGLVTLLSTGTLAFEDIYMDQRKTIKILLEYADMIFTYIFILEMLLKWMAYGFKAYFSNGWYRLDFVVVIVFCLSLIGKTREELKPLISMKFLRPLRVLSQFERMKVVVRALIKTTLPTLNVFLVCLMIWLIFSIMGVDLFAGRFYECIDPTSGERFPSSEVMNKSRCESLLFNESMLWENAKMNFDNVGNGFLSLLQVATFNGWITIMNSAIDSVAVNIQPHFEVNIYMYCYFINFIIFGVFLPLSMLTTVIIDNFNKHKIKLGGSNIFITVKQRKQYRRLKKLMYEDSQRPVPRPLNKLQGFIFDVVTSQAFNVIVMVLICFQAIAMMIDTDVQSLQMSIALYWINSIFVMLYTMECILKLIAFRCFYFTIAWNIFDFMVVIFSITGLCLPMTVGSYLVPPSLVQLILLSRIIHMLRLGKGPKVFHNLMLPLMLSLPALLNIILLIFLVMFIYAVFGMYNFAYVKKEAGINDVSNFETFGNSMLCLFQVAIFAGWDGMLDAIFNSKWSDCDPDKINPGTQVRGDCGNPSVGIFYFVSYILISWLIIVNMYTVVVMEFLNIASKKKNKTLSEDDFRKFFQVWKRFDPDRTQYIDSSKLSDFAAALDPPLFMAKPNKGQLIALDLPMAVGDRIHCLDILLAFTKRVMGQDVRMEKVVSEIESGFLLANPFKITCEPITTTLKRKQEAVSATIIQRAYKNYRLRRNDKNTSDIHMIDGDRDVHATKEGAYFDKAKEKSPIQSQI
compound,measurement,setting,value
O=C(NCC1CCCCN1)c1cc(OCC(F)(F)F)ccc1OCC(F)(F)F (centres unmarked) [flecainide],inhibition of NaX-QTT currents,human NaX-QTT; [2],strong inhibitory effects were not observed
Ser211Pro: pathogenic Ser211Pro mutation in NaV1.7,hyperpolarization of channel activation,[1],−12 mV
[Co+2] [Co^2+],inhibition of NaX-QTT currents,human NaX-QTT; [3],inhibited
[Gd+3] [Gd^3+],inhibition of NaX-QTT currents compared with Zn^2+ and Co^2+,"human NaX-QTT; trivalent cation, oocytes",more potent
O=C1NC(=O)C(c2ccccc2)(c2ccccc2)N1 [phenytoin],inhibition of NaX-QTT currents,human NaX-QTT; [2],strong inhibitory effects were not observed
ΔLeu966: in-frame DII-S6 deletion in NaV1.7,hyperpolarization of activation,Xenopus laevis oocytes,−16 mV
[Zn+2] [Zn^2+],inhibition of NaX-QTT currents,human NaX-QTT; [3],inhibited
NC1=N[C@H](O)[C@H]2[C@H]3O[C@]4(O)O[C@@H]([C@@H](O)[C@@]2(N1)[C@@H]4O)[C@]3(O)CO [tetrodotoxin],inhibitory effect on NaX-QTT,human NaX-QTT,inhibitory effects
